In assay [1] the target is Short transient receptor potential channel 6 (Mus musculus, UniProt Q61143). In words: TRPC6 inhibition potency of TRPC4 inhibitor analogs, dose response, selectivity assay for selective TRPC4 inhibitor project, HEK293 cells, membrane potential dye, IC50 (AID 492987). It is filed as functional, cell-based.
The target in assay [2] is T1, Short transient receptor potential channel 4 (Mus musculus, UniProt Q9QUQ5).
T1 sequence (Q9QUQ5 whole entry): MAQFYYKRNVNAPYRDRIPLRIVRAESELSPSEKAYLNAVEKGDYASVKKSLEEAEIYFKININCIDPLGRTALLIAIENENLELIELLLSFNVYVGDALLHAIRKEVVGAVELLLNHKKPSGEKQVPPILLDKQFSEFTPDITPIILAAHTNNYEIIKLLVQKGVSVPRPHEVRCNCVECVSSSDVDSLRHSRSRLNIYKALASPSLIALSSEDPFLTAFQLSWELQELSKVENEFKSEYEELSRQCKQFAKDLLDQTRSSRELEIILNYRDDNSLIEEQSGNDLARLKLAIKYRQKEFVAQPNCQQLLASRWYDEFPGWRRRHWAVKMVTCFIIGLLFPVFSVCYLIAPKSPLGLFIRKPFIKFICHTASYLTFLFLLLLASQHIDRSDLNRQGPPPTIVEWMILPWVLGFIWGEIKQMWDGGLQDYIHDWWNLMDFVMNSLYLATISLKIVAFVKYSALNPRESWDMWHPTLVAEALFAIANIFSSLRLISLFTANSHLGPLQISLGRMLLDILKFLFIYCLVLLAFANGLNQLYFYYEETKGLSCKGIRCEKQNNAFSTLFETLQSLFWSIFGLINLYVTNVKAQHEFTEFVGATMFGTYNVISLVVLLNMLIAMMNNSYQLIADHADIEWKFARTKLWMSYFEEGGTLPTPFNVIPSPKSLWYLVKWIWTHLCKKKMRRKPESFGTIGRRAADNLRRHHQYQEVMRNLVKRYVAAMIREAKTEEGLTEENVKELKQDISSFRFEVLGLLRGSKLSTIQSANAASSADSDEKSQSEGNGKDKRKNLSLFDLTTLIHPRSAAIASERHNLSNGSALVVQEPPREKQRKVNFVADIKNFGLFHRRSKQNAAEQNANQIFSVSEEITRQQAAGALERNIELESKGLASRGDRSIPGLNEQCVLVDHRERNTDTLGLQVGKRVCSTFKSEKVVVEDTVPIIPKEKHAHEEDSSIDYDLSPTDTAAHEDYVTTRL
Nature of the assay: TRPC4 inhibitor concentration-response, dose response, cell-based, HEK293 TRPC4/mu-opioid, DAMGO stimulus, Fluo-4 (AID 492994). It is filed as functional.

The next assay deals with T2, Hexokinase HKDC1 (Homo sapiens, UniProt Q2TB90).
T2 sequence (Q2TB90 whole entry): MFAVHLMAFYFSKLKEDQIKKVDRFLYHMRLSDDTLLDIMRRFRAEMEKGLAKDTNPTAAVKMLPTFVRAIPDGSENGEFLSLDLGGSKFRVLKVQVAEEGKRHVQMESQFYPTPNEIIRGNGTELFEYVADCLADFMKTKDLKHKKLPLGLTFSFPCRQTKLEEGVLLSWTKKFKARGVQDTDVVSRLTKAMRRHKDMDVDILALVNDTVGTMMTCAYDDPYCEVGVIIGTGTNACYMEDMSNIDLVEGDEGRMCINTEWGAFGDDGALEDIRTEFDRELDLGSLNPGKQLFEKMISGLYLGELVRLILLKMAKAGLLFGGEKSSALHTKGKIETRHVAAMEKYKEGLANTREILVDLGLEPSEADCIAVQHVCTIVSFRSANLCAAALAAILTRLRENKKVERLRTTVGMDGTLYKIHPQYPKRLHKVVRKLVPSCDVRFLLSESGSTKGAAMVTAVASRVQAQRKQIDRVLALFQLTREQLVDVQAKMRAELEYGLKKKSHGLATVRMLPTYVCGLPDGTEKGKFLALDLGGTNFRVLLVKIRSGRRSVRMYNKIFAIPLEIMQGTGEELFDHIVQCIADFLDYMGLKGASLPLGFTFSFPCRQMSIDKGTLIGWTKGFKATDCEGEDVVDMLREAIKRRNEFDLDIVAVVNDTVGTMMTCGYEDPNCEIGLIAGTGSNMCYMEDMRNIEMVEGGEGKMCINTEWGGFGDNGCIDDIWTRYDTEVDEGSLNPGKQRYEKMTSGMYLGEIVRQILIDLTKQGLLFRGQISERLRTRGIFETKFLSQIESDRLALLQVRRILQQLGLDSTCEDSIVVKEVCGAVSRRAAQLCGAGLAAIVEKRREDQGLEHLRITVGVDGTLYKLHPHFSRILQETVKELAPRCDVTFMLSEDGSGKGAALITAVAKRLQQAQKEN
In words: SAR analysis of small molecule inhibitors of hexokinase domain containing I (HKDC1). [Related pubchem assays (depositor defined):AID493160, AID493190]. The format is functional.

A further assay deals with Hexokinase-1 (Homo sapiens, UniProt P19367). Nature of the assay: SAR analysis of small molecule inhibitors of hexokinase domain containing I (HKDC1) in the hexokinase 1 selectivity assay. [Related pubchem assays (depositor defined):AID493160, AID493190]. The format is functional.
Chain of Hexokinase-1 (P19367 whole entry, the tested form may be a part): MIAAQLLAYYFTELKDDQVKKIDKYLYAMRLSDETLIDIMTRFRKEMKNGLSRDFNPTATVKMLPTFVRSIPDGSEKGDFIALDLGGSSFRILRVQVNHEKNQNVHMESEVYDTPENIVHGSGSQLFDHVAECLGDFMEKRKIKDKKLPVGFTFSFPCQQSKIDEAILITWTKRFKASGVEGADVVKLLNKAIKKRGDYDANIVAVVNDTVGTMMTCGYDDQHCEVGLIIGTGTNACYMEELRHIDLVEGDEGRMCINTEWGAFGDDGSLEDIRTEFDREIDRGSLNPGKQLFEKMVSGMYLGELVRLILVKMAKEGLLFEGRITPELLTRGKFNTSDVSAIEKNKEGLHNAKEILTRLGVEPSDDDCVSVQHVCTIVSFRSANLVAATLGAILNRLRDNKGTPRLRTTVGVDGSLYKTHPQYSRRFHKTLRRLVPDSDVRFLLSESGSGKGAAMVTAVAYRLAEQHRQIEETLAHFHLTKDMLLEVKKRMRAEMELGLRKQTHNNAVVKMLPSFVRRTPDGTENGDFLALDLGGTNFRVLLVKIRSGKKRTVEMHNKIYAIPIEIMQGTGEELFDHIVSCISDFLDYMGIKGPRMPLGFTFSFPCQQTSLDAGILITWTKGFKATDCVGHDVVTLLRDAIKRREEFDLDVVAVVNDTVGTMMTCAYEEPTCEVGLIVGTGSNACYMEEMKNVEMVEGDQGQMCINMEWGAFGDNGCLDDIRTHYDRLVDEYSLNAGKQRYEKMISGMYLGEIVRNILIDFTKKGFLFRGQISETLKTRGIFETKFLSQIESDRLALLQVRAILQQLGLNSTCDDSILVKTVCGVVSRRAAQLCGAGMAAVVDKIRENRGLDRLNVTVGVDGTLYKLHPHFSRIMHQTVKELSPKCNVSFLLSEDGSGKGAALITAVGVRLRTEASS
Assay [3] concerns the target T3, G-protein coupled receptor 35 (Homo sapiens, UniProt Q9HC97). In words: GPR35 antagonists blocking zaprinast-driven arrestin recruitment, primary screen, imaging, U2OS, beta-arrestin-GFP, zaprinast agonist (AID 2058).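 Note: antagonist potency meaning inhibition of agonist-induced arrestin redistribution.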 The format is functional.
In assay [4] the target is Beta-2 adrenergic receptor (Homo sapiens, UniProt P07550). Nature of the assay: beta2AR agonists driving receptor internalization, dose response, cell-based, FAP fluorogen, flow cytometry, cherry pick 1 (AID 588763). The format is functional.
Chain of Beta-2 adrenergic receptor (P07550 whole entry): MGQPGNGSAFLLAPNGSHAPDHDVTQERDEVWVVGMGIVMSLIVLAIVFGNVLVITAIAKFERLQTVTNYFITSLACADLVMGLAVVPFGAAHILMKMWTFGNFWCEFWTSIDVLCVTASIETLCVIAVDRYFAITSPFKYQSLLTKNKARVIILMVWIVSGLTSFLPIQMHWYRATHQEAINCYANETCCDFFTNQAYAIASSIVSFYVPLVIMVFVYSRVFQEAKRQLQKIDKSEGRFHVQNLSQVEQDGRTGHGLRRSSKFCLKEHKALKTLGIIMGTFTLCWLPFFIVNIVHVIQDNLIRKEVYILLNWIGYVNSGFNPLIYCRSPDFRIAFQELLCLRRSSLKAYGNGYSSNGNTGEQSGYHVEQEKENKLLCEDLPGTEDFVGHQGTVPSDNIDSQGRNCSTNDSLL
For assay [5], the target named is G-protein coupled receptor 55 (Homo sapiens, UniProt Q9Y2T6). In words: GPR55 antagonists, SAR follow-up, counter-screen for GPR35 antagonist project, imaging, image-based (AID 2397). The format is functional. (A counterscreen serves to expose hits that act by an unwanted route or on another target.)
Chain of G-protein coupled receptor 55 (Q9Y2T6 whole entry): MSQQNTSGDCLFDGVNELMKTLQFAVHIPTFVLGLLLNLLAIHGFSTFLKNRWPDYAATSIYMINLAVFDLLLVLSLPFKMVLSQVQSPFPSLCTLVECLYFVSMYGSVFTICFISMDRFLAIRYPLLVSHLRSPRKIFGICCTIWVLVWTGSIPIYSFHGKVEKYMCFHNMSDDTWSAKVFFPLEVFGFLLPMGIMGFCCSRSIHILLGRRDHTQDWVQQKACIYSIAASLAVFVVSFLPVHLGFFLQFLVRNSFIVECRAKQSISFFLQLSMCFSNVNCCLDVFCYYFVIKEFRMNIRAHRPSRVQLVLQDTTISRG
Assay [6] has as its target T3, G-protein coupled receptor 35. Nature of the assay: SAR Analysis for the identification of Selective Antagonists of ERK1/2 Activity in GPR35-Overexpressing U2OS Cells. [Related pubchem assays: 2079, 2058 ]. It is filed as functional, cell-based.
The test system of the next assay is Escherichia coli. In words: microbe, parasite or virus in culture.
Assay [7] has as its system HEK293. Nature of the assay: cells. To be noted: Homo sapiens.
In another assay the target is T4, Caspase-3 (Homo sapiens, UniProt P42574).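 Note: Dose-response selectivity test against caspase-3 for candidate inhibitors of sentrin-specific proteases (SENPs).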
T4 sequence (P42574 whole entry): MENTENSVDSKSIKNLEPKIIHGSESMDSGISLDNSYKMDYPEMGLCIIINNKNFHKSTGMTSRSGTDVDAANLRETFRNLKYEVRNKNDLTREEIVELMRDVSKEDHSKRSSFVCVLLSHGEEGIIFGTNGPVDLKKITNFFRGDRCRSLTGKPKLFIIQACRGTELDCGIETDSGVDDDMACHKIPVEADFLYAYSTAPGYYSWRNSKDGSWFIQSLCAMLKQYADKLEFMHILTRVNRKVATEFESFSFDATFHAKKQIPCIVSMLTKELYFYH
The format is functional.

For assay [8], the target named is T5, Sentrin-specific protease 7 (Homo sapiens, UniProt Q9BQF6).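 Note: Luminescence-based dose-response confirmation of ultra-high-throughput screening hits, measuring inhibition of SENP7.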
T5 sequence (Q9BQF6 whole entry): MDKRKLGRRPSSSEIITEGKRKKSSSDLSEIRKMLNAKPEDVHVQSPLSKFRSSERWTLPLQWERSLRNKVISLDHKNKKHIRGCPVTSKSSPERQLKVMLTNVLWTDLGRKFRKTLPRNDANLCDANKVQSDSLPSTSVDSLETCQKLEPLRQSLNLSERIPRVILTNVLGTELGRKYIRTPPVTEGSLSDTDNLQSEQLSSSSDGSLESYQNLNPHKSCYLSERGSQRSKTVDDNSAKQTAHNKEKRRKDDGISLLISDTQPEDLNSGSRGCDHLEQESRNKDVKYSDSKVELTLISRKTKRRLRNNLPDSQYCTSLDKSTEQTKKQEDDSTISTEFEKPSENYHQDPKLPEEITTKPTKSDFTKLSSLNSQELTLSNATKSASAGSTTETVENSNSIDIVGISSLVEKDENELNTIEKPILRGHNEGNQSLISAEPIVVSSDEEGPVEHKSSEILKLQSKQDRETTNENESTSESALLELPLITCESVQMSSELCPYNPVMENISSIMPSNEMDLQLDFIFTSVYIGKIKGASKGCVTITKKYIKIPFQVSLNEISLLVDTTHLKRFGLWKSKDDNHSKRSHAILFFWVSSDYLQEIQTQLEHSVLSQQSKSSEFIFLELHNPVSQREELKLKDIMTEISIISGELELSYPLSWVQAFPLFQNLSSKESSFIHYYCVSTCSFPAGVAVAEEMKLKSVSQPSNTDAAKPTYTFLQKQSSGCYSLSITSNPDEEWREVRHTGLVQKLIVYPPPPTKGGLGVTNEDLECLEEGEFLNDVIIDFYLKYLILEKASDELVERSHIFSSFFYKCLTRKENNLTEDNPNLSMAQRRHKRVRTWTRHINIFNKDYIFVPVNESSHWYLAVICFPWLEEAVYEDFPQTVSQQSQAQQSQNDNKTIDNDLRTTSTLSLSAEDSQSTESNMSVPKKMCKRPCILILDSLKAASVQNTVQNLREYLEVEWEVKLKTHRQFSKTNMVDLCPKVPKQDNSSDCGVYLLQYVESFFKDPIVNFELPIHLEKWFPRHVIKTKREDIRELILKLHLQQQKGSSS
The format is functional.

Assay [9] relates to HEK293. In words: cells. As to conditions: Homo sapiens. This is another data set of the same source.
The target of assay [10] is T6, Sentrin-specific protease 8 (Homo sapiens, UniProt Q96LD8).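 Note: luminescence read-out of SENP8 inhibition, dose-response confirmation following an ultra-high-throughput screen.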
T6 sequence (Q96LD8 whole entry): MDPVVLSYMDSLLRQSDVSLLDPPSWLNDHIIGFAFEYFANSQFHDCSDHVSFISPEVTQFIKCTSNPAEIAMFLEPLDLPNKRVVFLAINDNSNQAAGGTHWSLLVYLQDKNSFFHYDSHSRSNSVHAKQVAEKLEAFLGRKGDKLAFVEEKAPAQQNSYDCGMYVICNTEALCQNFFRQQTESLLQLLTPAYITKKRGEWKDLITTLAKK
It is filed as functional.

Assay [11] addresses T7, Sentrin-specific protease 6 (Homo sapiens, UniProt Q9GZR1).
T7 sequence (Q9GZR1 whole entry): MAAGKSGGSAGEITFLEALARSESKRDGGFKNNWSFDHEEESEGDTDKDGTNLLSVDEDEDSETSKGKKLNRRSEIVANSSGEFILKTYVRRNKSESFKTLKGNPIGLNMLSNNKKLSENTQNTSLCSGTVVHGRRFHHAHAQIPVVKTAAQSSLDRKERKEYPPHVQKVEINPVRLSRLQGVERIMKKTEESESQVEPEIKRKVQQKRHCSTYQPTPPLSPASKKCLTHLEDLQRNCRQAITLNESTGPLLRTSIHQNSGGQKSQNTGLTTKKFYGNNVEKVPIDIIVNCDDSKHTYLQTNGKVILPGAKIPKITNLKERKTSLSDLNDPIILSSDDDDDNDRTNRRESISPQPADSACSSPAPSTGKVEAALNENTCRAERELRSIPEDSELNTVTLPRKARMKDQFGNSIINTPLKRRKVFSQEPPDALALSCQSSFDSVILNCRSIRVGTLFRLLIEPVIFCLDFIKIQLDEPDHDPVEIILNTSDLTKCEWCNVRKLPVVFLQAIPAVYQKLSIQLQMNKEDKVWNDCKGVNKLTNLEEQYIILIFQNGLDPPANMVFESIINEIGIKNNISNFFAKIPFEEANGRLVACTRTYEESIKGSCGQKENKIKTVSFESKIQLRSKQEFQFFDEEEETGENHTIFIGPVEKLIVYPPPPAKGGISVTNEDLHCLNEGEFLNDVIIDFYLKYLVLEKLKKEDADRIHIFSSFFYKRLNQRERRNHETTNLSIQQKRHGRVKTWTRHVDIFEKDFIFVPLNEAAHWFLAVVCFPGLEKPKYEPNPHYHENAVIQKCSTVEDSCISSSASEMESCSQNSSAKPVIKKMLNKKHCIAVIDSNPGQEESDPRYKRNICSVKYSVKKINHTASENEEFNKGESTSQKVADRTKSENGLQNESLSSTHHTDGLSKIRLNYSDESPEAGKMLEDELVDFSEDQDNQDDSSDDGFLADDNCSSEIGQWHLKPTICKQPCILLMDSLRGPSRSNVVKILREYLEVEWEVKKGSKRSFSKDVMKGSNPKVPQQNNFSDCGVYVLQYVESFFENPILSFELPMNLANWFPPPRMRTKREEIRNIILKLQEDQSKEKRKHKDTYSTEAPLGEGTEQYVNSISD
It is filed as functional.

The next assay addresses Phospholipase D1 (Homo sapiens, UniProt Q13393). In words: PLD1 inhibitor potency in cells, dose response (AID 602151).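 Note: cellular PLD1 assay in Calu-1 cells stimulated with PMA.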 It is filed as functional.
The next assay concerns the target Phospholipase D2 (Homo sapiens, UniProt O14939). In words: PLD2 inhibitor potency in cells, dose response (AID 602147).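 Note: cellular assay in HEK293 cells overexpressing GFP-tagged PLD2.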 The format is functional.

Each structure is given as a SMILES string. Active and inactive are the calls of the source. Where only a bound is given, the exact number is not on record here.

For orientation: IC50 means the concentration at which inhibition is half-maximal. One may read the EC50 as the concentration needed to bring the measured effect to its halfway point. As a reminder, the AC50 is the concentration giving half of the maximal activity seen.

T3 sequence (Q9HC97 whole entry): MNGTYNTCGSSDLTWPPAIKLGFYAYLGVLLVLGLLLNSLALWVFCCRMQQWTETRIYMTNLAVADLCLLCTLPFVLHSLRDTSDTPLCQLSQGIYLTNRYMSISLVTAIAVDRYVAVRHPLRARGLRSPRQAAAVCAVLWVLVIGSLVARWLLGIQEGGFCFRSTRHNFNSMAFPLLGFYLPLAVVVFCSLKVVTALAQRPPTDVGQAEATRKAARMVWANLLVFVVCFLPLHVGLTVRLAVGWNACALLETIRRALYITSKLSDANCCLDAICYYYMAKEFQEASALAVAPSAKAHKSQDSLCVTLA
Chain of Short transient receptor potential channel 6 (Q61143 whole entry): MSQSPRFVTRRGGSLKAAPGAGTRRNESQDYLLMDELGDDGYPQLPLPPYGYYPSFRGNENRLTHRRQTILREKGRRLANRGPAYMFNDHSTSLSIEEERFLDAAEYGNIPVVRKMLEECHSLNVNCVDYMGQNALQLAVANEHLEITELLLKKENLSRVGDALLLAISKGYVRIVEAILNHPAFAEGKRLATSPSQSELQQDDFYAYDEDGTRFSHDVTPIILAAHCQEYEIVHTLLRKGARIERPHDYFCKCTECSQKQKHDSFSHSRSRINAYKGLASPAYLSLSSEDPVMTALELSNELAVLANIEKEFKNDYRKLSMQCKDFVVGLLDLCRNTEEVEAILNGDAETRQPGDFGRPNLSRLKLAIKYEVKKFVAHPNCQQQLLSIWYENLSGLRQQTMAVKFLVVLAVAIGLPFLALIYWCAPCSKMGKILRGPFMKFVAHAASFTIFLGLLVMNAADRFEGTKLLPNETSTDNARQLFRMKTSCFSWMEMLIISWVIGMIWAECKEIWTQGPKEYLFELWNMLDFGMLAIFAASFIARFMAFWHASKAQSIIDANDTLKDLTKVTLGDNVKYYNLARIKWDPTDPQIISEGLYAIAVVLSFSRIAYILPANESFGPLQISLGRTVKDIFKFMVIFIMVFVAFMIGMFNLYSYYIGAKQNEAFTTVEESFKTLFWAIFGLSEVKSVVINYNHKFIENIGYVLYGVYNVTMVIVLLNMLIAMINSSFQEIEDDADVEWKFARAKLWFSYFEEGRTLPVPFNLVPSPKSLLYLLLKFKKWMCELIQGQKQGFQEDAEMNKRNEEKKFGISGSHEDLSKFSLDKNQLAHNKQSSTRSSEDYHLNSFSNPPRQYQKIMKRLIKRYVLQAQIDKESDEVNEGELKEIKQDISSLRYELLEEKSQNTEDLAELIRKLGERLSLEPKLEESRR
Chain of Phospholipase D1 (Q13393 whole entry): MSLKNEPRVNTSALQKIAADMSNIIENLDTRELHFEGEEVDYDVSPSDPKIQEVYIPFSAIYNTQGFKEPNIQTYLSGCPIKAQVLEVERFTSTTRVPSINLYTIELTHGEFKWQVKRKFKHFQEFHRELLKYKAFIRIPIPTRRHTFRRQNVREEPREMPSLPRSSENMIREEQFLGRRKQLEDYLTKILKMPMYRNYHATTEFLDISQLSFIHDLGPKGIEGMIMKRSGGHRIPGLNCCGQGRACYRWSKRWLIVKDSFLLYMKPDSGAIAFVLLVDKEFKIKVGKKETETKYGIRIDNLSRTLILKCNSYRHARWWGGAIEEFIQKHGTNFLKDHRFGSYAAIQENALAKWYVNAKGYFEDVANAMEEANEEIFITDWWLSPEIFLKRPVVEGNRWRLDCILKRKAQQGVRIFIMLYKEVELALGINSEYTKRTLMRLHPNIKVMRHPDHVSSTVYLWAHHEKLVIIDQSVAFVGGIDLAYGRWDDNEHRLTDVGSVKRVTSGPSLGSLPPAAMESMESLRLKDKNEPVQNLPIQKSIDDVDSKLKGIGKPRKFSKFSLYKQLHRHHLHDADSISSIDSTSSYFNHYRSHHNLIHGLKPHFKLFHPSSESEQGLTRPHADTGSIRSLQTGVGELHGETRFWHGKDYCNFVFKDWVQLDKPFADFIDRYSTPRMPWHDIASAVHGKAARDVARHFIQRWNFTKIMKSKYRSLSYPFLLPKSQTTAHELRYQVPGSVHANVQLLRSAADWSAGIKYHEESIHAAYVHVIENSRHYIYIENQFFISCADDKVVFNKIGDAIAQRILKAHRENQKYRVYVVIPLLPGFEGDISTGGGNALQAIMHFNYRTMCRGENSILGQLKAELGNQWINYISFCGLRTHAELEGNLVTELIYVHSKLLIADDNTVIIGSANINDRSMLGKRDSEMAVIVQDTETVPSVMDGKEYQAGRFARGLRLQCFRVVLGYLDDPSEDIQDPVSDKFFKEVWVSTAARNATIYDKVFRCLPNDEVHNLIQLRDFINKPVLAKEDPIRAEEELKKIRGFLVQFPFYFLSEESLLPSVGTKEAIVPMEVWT
Chain of Phospholipase D2 (O14939 whole entry): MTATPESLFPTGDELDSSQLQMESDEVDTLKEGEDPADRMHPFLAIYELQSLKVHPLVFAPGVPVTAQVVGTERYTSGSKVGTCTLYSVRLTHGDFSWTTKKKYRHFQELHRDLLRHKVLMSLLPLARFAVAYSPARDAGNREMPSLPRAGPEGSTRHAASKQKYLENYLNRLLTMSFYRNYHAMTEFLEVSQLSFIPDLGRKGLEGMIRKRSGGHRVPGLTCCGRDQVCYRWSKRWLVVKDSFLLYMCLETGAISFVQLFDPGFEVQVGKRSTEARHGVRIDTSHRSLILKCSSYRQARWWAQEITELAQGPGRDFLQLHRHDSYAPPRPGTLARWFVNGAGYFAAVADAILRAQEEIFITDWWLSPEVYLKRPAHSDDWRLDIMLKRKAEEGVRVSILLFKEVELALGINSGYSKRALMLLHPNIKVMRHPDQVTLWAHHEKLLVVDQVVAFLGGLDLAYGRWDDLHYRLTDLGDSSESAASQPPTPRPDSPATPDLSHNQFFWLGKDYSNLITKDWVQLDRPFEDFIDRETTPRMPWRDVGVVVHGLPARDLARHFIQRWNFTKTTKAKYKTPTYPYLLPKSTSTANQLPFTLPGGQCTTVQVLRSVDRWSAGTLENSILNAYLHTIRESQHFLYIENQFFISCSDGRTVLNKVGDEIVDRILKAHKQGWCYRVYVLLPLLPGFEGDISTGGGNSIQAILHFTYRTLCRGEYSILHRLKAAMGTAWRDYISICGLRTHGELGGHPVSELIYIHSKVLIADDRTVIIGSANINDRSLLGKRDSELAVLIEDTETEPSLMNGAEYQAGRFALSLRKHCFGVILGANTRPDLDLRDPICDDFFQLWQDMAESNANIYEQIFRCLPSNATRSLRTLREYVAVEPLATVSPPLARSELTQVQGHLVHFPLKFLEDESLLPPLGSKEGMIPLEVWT

For the compound `Cc1cc(N2CCC(N3CCOCC3)CC2)nc2ccccc12`, the values for the IC50 in assay [1] and in [2] were 16.9 µM (active) and 31.9 µM (active), respectively.

As for `O=c1c2ccccc2nc(/C=C/c2cccc(Br)c2)n1Cc1ccccc1`, the IC50 on Hexokinase HKDC1 and at Hexokinase-1 was > 80 µM (inactive) each time.

On to `O=C(Nc1ccc2nc(SCc3ccc(Cl)cc3)sc2c1)c1ccccc1C(=O)N1CCOCC1`, for which the IC50 was 0.768 µM (active) in [3], > 32 µM (inactive) in assay [5] and 16.5 µM (not active) in assay [6]. Besides, in assay [4], the EC50 was 1.74 µM (active).

In the case of `CCOC(=O)c1cc(C)sc1NC(=O)C(c1ccccc1)c1ccccc1`, in the assay with Escherichia coli, the AC50 is 123 µM (active).

Take `COc1cc(C#Cc2ccc3cc(CCCO)oc(=O)c3c2)cc(OC)c1`: the EC50 in the assay with HEK293 [7] and in the assay with HEK293 [9] was > 59.6 µM (inactive) throughout. Moreover, the half-inhibitory concentration (IC50) was 21 µM (active) at Caspase-3, 2.81 µM (active) in assay [8], 10.6 µM (active) in assay [10] and 7.16 µM (active) in [11].

In the case of `O=C(NCCN1CCC2(CC1)C(=O)NCN2c1cccc(F)c1)c1ccc(F)nc1`, the results for the IC50 at Phospholipase D1 and at Phospholipase D2 were 17 µM (active) and 0.385 µM (active), respectively.

The record behind these values is ChEMBL document CHEMBL1201862, “PubChem BioAssay data set” (2004).
